Test results: US20230085307A1, “PYRIDAZINONE COMPOUND AND HERBICIDE” (NISSAN CHEMICAL CORPORATION, priority 2019, published 2023)

Tests used:
velvetleaf = assay: Test Example 5: herbicidal effect by foliage application, plastic box (Table 20, symbol M); format: in vivo, velvetleaf (Abutilon theophrasti); details: foliage application
Method in brief: (§1)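 Plants were sown into sterilized diluvial soil under about 1.5 cm cover and kept in a greenhouse at 25° C. to 30° C. Fourteen days on, foliage received an even spray of the diluted emulsion. Herbicidal or crop effect was judged three weeks afterwards.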

windgrass = assay: Test Example 5: herbicidal effect by foliage application, plastic box (Table 20, symbol L); format: in vivo, windgrass (Apera spica-venti); details: foliage application
Method in brief: as §1

persian speedwell = assay: Test Example 5: herbicidal effect by foliage application, plastic box (Table 20, symbol R); format: in vivo, Persian speedwell (Veronica persica); details: foliage application
Method in brief: as §1

southern crabgrass = assay: Test Example 5: herbicidal effect by foliage application, plastic box (Table 20, symbol F); format: in vivo, southern crabgrass (Digitaria ciliaris); details: foliage application
Method in brief: as §1

wild oat = assay: Test Example 5: herbicidal effect by foliage application, plastic box (Table 20, symbol I); format: in vivo, wild oat (Avena fatua); details: foliage application
Method in brief: as §1

rice flat sedge = assay: Test Example 3: herbicidal effect by foliage application, Wagner pot (Table 18, symbol E); format: in vivo, rice flat sedge (Cyperus iria); details: for herbicidal effect on E (rice flat sedge), rating 0-5: 320 g/ha; for herbicidal effect on E: rice flat sedge: amount of applied herbicide 320 g/ha
Method in brief: (§2)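 Plants were sown in alluvial soil held under 0.1–0.5 cm standing water and grown 14 days in a greenhouse at 25–30 °C. An emulsifiable formulation, water-diluted to the set dose, was then sprayed onto the foliage, and effects were scored three weeks later using previously defined criteria.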

barnyard grass [1] = assay: Test Example 5: herbicidal effect by foliage application, plastic box (Table 20, symbol H); format: in vivo, barnyard grass (Echinochloa crus-galli); details: foliage application
Method in brief: as §1

blackgrass = assay: Test Example 5: herbicidal effect by foliage application, plastic box (Table 20, symbol J); format: in vivo, blackgrass (Alopecurus myosuroides); details: foliage application
Method in brief: as §1

chickweed = assay: Test Example 5: herbicidal effect by foliage application, plastic box (Table 20, symbol P); format: in vivo, common chickweed (Stellaria media); details: foliage application
Method in brief: as §1

green foxtail = assay: Test Example 5: herbicidal effect by foliage application, plastic box (Table 20, symbol G); format: in vivo, green foxtail (Setaria viridis); details: foliage application
Method in brief: as §1

Italian ryegrass = assay: Test Example 5: herbicidal effect by foliage application, plastic box (Table 20, symbol K); format: in vivo, Italian ryegrass (Lolium multiflorum); details: foliage application
Method in brief: as §1

lambsquarters = assay: Test Example 5: herbicidal effect by foliage application, plastic box (Table 20, symbol O); format: in vivo, lambsquarters (Chenopodium album); details: foliage application
Method in brief: as §1

redroot pigweed = assay: Test Example 5: herbicidal effect by foliage application, plastic box (Table 20, symbol N); format: in vivo, redroot pigweed (Amaranthus retroflexus); details: foliage application
Method in brief: as §1

Chinese sprangletop = assay: Test Example 3: herbicidal effect by foliage application, Wagner pot (Table 18, symbol D); format: in vivo, chinese sprangletop (Leptochloa chinensis); details: for herbicidal effect on D (Chinese sprangletop), rating 0-5: 320 g/ha; for herbicidal effect on D: Chinese sprangletop: amount of applied herbicide 320 g/ha
Method in brief: as §2

barnyard grass [2] = assay: Test Example 3: herbicidal effect by foliage application, Wagner pot (Table 18, symbol H); format: in vivo, barnyard grass (Echinochloa crus-galli); details: for herbicidal effect on H (barnyard grass), rating 0-5: 320 g/ha; for herbicidal effect on H: barnyard grass: amount of applied herbicide 320 g/ha
Method in brief: as §2

[3] = 320 g/ha, three weeks after application
[4] = AAH 320 g/ha, three weeks after application
[5] = 320 g/ha, evaluated three weeks after application
[6] = AAH 320 g/ha, evaluated three weeks after application

## CCCC(=O)Oc1c(C)nn(C)c(=O)c1-c1c(-c2ccccc2SC)sc2ccccc12 [1-035]
velvetleaf; [3]
  herbicidal effect grade, M: velvetleaf: 0 (Herbicidal rate of 5% or less (almost no effect))
windgrass; [3]
  herbicidal effect grade, L: windgrass: 0 (Herbicidal rate of 5% or less (almost no effect))
Persian speedwell; [3]
  herbicidal effect grade, R: persian speedwell: 0 (Herbicidal rate of 5% or less (almost no effect))
Southern crabgrass; [3]
  herbicidal effect grade, F: southern crabgrass: 0 (Herbicidal rate of 5% or less (almost no effect))
Wild oat; [3]
  herbicidal effect grade, I: wild oat: 3 (Herbicidal rate of 40% or more and less than 70%)
Rice flat sedge
  herbicidal effect on E (rice flat sedge), rating 0-5: 4 (Herbicidal rate of 70% or more and less than 90%)
Barnyard grass [1]; [3]
  herbicidal effect grade, H: barnyard grass: 0 (Herbicidal rate of 5% or less (almost no effect))
blackgrass; [3]
  herbicidal effect grade, J: blackgrass: 0 (Herbicidal rate of 5% or less (almost no effect))
chickweed; [3]
  herbicidal effect grade, P: chickweed: 1 (Herbicidal rate of 5% or more and less than 20%)
Green foxtail; [3]
  herbicidal effect grade, G: green foxtail: 0 (Herbicidal rate of 5% or less (almost no effect))
Italian ryegrass; [3]
  herbicidal effect grade, K: Italian ryegrass: 0 (Herbicidal rate of 5% or less (almost no effect))
lambsquarters; [3]
  herbicidal effect grade, O: lambsquarters: 0 (Herbicidal rate of 5% or less (almost no effect))
Redroot pigweed; [3]
  herbicidal effect grade, N: redroot pigweed: 0 (Herbicidal rate of 5% or less (almost no effect))
Chinese sprangletop
  herbicidal effect on D (Chinese sprangletop), rating 0-5: 0 (Herbicidal rate of 5% or less (almost no effect))
Barnyard grass [2]
  herbicidal effect on H (barnyard grass), rating 0-5: 3 (Herbicidal rate of 40% or more and less than 70%)

## COc1nn(C)c(=O)c(-c2c(-c3cccc(OC(F)(F)F)c3)sc3ccccc23)c1O [1-160]
velvetleaf; [4]
  M: velvetleaf, herbicidal effect: 1 (Herbicidal rate of 5% or more and less than 20%)
windgrass; [4]
  L: windgrass, herbicidal effect: 0 (Herbicidal rate of 5% or less (almost no effect))
Persian speedwell; [4]
  R: persian speedwell, herbicidal effect: 0 (Herbicidal rate of 5% or less (almost no effect))
Southern crabgrass; [4]
  F: southern crabgrass, herbicidal effect: 0 (Herbicidal rate of 5% or less (almost no effect))
Wild oat; [4]
  I: wild oat, herbicidal effect: 0 (Herbicidal rate of 5% or less (almost no effect))
Rice flat sedge
  herbicidal effect on E (rice flat sedge), rating 0-5: 4 (Herbicidal rate of 70% or more and less than 90%)
Barnyard grass [1]; [4]
  H: barnyard grass, herbicidal effect: 1 (Herbicidal rate of 5% or more and less than 20%)
blackgrass; [4]
  J: blackgrass, herbicidal effect: 0 (Herbicidal rate of 5% or less (almost no effect))
chickweed; [4]
  P: chickweed, herbicidal effect: 4 (Herbicidal rate of 70% or more and less than 90%)
Green foxtail; [4]
  G: green foxtail, herbicidal effect: 1 (Herbicidal rate of 5% or more and less than 20%)
Italian ryegrass; [4]
  K: Italian ryegrass, herbicidal effect: 1 (Herbicidal rate of 5% or more and less than 20%)
lambsquarters; [4]
  O: lambsquarters, herbicidal effect: 1 (Herbicidal rate of 5% or more and less than 20%)
Redroot pigweed; [4]
  N: redroot pigweed, herbicidal effect: 5 (Herbicidal rate of 90% or more (almost completely withered))
Chinese sprangletop
  herbicidal effect on D (Chinese sprangletop), rating 0-5: 1 (Herbicidal rate of 5% or more and less than 20%)
Barnyard grass [2]
  herbicidal effect on H (barnyard grass), rating 0-5: 0 (Herbicidal rate of 5% or less (almost no effect))

## CCCC(=O)Oc1c(OC)nn(C)c(=O)c1-c1c(-c2cccc(OC(F)(F)F)c2)sc2ccccc12 [1-161]
velvetleaf; [4]
  M: velvetleaf, herbicidal effect: 1 (Herbicidal rate of 5% or more and less than 20%)
windgrass; [4]
  L: windgrass, herbicidal effect: 0 (Herbicidal rate of 5% or less (almost no effect))
Persian speedwell; [4]
  R: persian speedwell, herbicidal effect: 0 (Herbicidal rate of 5% or less (almost no effect))
Southern crabgrass; [4]
  F: southern crabgrass, herbicidal effect: 0 (Herbicidal rate of 5% or less (almost no effect))
Wild oat; [4]
  I: wild oat, herbicidal effect: 0 (Herbicidal rate of 5% or less (almost no effect))
Rice flat sedge
  herbicidal effect on E (rice flat sedge), rating 0-5: 3 (Herbicidal rate of 40% or more and less than 70%)
Barnyard grass [1]; [4]
  H: barnyard grass, herbicidal effect: 0 (Herbicidal rate of 5% or less (almost no effect))
blackgrass; [4]
  J: blackgrass, herbicidal effect: 0 (Herbicidal rate of 5% or less (almost no effect))
chickweed; [4]
  P: chickweed, herbicidal effect: 0 (Herbicidal rate of 5% or less (almost no effect))
Green foxtail; [4]
  G: green foxtail, herbicidal effect: 0 (Herbicidal rate of 5% or less (almost no effect))
Italian ryegrass; [4]
  K: Italian ryegrass, herbicidal effect: 0 (Herbicidal rate of 5% or less (almost no effect))
lambsquarters; [4]
  O: lambsquarters, herbicidal effect: 0 (Herbicidal rate of 5% or less (almost no effect))
Redroot pigweed; [4]
  N: redroot pigweed, herbicidal effect: 3 (Herbicidal rate of 40% or more and less than 70%)
Chinese sprangletop
  herbicidal effect on D (Chinese sprangletop), rating 0-5: 0 (Herbicidal rate of 5% or less (almost no effect))
Barnyard grass [2]
  herbicidal effect on H (barnyard grass), rating 0-5: 1 (Herbicidal rate of 5% or more and less than 20%)

## CCCC(=O)Oc1c(C)nn(C)c(=O)c1-c1c(-c2ccc(F)cc2OC)sc2ccc(-c3ccc(OC(C)C)cc3)cc12 [2-169]
velvetleaf; [5]
  herbicidal effect on M: velvetleaf (criteria 0-5): 0 (Herbicidal rate of 5% or less (almost no effect))
windgrass; [5]
  herbicidal effect on L: windgrass (criteria 0-5): 0 (Herbicidal rate of 5% or less (almost no effect))
Persian speedwell; [5]
  herbicidal effect on R: persian speedwell (criteria 0-5): 0 (Herbicidal rate of 5% or less (almost no effect))
Southern crabgrass; [5]
  herbicidal effect on F: southern crabgrass (criteria 0-5): 0 (Herbicidal rate of 5% or less (almost no effect))
Wild oat; [5]
  herbicidal effect on I: wild oat (criteria 0-5): 0 (Herbicidal rate of 5% or less (almost no effect))
Barnyard grass [1]; [5]
  herbicidal effect on H: barnyard grass (criteria 0-5): 0 (Herbicidal rate of 5% or less (almost no effect))
blackgrass; [5]
  herbicidal effect on J: blackgrass (criteria 0-5): 0 (Herbicidal rate of 5% or less (almost no effect))
chickweed; [5]
  herbicidal effect on P: chickweed (criteria 0-5): 0 (Herbicidal rate of 5% or less (almost no effect))
Green foxtail; [5]
  herbicidal effect on G: green foxtail (criteria 0-5): 0 (Herbicidal rate of 5% or less (almost no effect))
Italian ryegrass; [5]
  herbicidal effect on K: Italian ryegrass (criteria 0-5): 0 (Herbicidal rate of 5% or less (almost no effect))
lambsquarters; [5]
  herbicidal effect on O: lambsquarters (criteria 0-5): 3 (Herbicidal rate of 40% or more and less than 70%)
Redroot pigweed; [5]
  herbicidal effect on N: redroot pigweed (criteria 0-5): 2 (Herbicidal rate of 20% or more and less than 40%)

## Cc1nn(C)c(=O)c(-c2c(-c3cccc(OC(F)F)c3)sc3ccc(F)cc23)c1O [2-234]
velvetleaf; [5]
  herbicidal effect on M: velvetleaf (criteria 0-5): 0 (Herbicidal rate of 5% or less (almost no effect))
windgrass; [5]
  herbicidal effect on L: windgrass (criteria 0-5): 0 (Herbicidal rate of 5% or less (almost no effect))
Persian speedwell; [5]
  herbicidal effect on R: persian speedwell (criteria 0-5): 5 (Herbicidal rate of 90% or more (almost completely withered))
Southern crabgrass; [5]
  herbicidal effect on F: southern crabgrass (criteria 0-5): 0 (Herbicidal rate of 5% or less (almost no effect))
Wild oat; [5]
  herbicidal effect on I: wild oat (criteria 0-5): 0 (Herbicidal rate of 5% or less (almost no effect))
Rice flat sedge
  herbicidal effect on E: rice flat sedge: 0 (Herbicidal rate of 5% or less (almost no effect))
Barnyard grass [1]; [5]
  herbicidal effect on H: barnyard grass (criteria 0-5): 0 (Herbicidal rate of 5% or less (almost no effect))
blackgrass; [5]
  herbicidal effect on J: blackgrass (criteria 0-5): 0 (Herbicidal rate of 5% or less (almost no effect))
chickweed; [5]
  herbicidal effect on P: chickweed (criteria 0-5): 5 (Herbicidal rate of 90% or more (almost completely withered))
Green foxtail; [5]
  herbicidal effect on G: green foxtail (criteria 0-5): 0 (Herbicidal rate of 5% or less (almost no effect))
Italian ryegrass; [5]
  herbicidal effect on K: Italian ryegrass (criteria 0-5): 0 (Herbicidal rate of 5% or less (almost no effect))
lambsquarters; [5]
  herbicidal effect on O: lambsquarters (criteria 0-5): 2 (Herbicidal rate of 20% or more and less than 40%)
Redroot pigweed; [5]
  herbicidal effect on N: redroot pigweed (criteria 0-5): 4 (Herbicidal rate of 70% or more and less than 90%)
Chinese sprangletop
  herbicidal effect on D: Chinese sprangletop: 0 (Herbicidal rate of 5% or less (almost no effect))
Barnyard grass [2]
  herbicidal effect on H: barnyard grass: 3 (Herbicidal rate of 40% or more and less than 70%)

## CC(=O)COc1c(C)nn(C)c(=O)c1-c1c(-c2ccc(OC(F)F)cc2)sc2ccc(F)cc12 [2-304]
velvetleaf; [6]
  M: velvetleaf, herbicidal effect (criteria 0-5): 0 (Herbicidal rate of 5% or less (almost no effect))
windgrass; [6]
  L: windgrass, herbicidal effect (criteria 0-5): 0 (Herbicidal rate of 5% or less (almost no effect))
Persian speedwell; [6]
  R: persian speedwell, herbicidal effect (criteria 0-5): 5 (Herbicidal rate of 90% or more (almost completely withered))
Southern crabgrass; [6]
  F: southern crabgrass, herbicidal effect (criteria 0-5): 0 (Herbicidal rate of 5% or less (almost no effect))
Wild oat; [6]
  I: wild oat, herbicidal effect (criteria 0-5): 0 (Herbicidal rate of 5% or less (almost no effect))
Rice flat sedge
  herbicidal effect on E: rice flat sedge: 3 (Herbicidal rate of 40% or more and less than 70%)
Barnyard grass [1]; [6]
  H: barnyard grass, herbicidal effect (criteria 0-5): 0 (Herbicidal rate of 5% or less (almost no effect))
blackgrass; [6]
  J: blackgrass, herbicidal effect (criteria 0-5): 0 (Herbicidal rate of 5% or less (almost no effect))
chickweed; [6]
  P: chickweed, herbicidal effect (criteria 0-5): 5 (Herbicidal rate of 90% or more (almost completely withered))
Green foxtail; [6]
  G: green foxtail, herbicidal effect (criteria 0-5): 0 (Herbicidal rate of 5% or less (almost no effect))
Italian ryegrass; [6]
  K: Italian ryegrass, herbicidal effect (criteria 0-5): 0 (Herbicidal rate of 5% or less (almost no effect))
lambsquarters; [6]
  O: lambsquarters, herbicidal effect (criteria 0-5): 3 (Herbicidal rate of 40% or more and less than 70%)
Redroot pigweed; [6]
  N: redroot pigweed, herbicidal effect (criteria 0-5): 5 (Herbicidal rate of 90% or more (almost completely withered))
Chinese sprangletop
  herbicidal effect on D: Chinese sprangletop: 3 (Herbicidal rate of 40% or more and less than 70%)
Barnyard grass [2]
  herbicidal effect on H: barnyard grass: 3 (Herbicidal rate of 40% or more and less than 70%)
